In PMC10666768, “Optimized peptide nanofibrils as efficient transduction enhancers for in vitro and ex vivo gene transfer” (Frontiers in Immunology, 2023):
“Also recorded” adds a separate entry of the source. Peptide text beside a SMILES is read from it.

Assays:
[1] = system: TZM-bl cells
Experimental: To determine the effect of peptides on cellular metabolic activity, MTT (Thiazolyl blue tetrazolium bromide) Cell Growth Assay (Merck, Cat: CT02) and CellTiter-Glo Luminescent Cell Viability Assay (Promega, Cat: G7571) were performed. 10,000 TZM-bl cells or 50,000 Jurkat cells were seeded into 96-well plates and treated with indicated concentrations of peptides. For TZM-bl cells, the supernatants were removed after three days and 100 µl MTT (0.5 mg/ml) was added and incubated for 2.5 hours. For Jurkat cells, supernatants were removed after two days, and cells were incubated with 40 μl MTT (1 mg/ml) for 5 hours. Then the MTT solution was removed, and 100 µl 1:1 DMSO-Ethanol was added. The absorption was measured at 590 nm with baseline-corrected at 650 nm using VersaMax Microplate Reader (Molecular Devices). The CellTiter-Glo assay was performed according to the manufacturing protocol. 100 μl CellTiter-Glo Reagent 1:1 diluted in PBS (Gibco, 14200075) was added to pelleted Jurkat cells for 10 min followed by transferring 50 µl to white microplate, and luminescence was recorded by Orion microplate luminometer (Berthold).
(A) TZM-bl cells were treated […]
with different peptide concentrations. MTT assay was performed three days later. […] The cell viability in % was calculated by normalizing sample values to untreated control which was set to 100 %. […]

[2] = system: human T cells; conditions: trypan blue after 7 days
[3] = Chemical stability of PNFs by HPLC and MALDI-TOF MS; type: physicochemical; conditions: 2 mg/ml PNFs in PBS, RT or 37°C, 10 min, 1 h, 24 h, 10 d; reversed-phase C18 HPLC, UV 214 nm
Experimental: RM-8 and D4 were prepared at 2 mg/ml in PBS and were incubated at room temperature (RT) or 37°C for 10 min, 1 hour, 24 hours, and 10 days. Aliquots (25 µL) of both samples were separated after 10 minutes, 1 hour, 24 hours, and 10 days and centrifuged at 13,000 x g for one minute. Supernatants were diluted with 100 µL 10% acetic acid, whereas the pellets were dissolved in 125 µL 6 M guanidinium chloride. All samples were analyzed in an Agilent 1100 Series HPLC system, using a reversed-phase BioBasicTM 18-HPLC column (Thermo Scientific) of dimensions 2.1 x 100 mm and particle size of 5 µm. Gradient elution was used for elution as follows (RM-8): 0 min/5%B, 1 min/20%B, and 15 min/40%B; and for D4: 0 min/5%B, 1 min/15%B, and 15 min/35/%B), being A, 0. 1% TFA in water, and B, 0.1% TFA in acetonitrile. The flow rate was 0.5 mL/min, and the detection was monitored online by UV absorption at 214 nm. ChemStation (version B.04.03, Agilent) was used for data acquisition and the HPLC system’s control.
Mass spectra were obtained with an Axima Confidence MALDI-TOF mass spectrometer (Shimadzu). Measurements were performed in positive ion reflectron mode. The mass range was 100–10000 Da. For each sample, 20 shots were accumulated per profile (100 profiles per spectra) using a laser power of 42% and a laser frequency of 50 Hz. TOFMix MALDI kit (Shimadzu) was used for external mass calibration. […]

[4] = system: human NK cells; conditions: 4-day incubation, propidium iodide, three donors
Experimental: NK cells were isolated from buffy coats of healthy donors by standard density-gradient centrifugation, using Ficoll-Paque (VWR, Cat: 17-1440-03) using the RosetteSep™ Human NK Cell Enrichment Cocktail ([sequence] Technologies, Cat: 15065). NK cells were cultured at 1×10^6 cells/ml in NK MACS medium (Miltenyi Biotec, Cat: 130-114-429) with 5% human AB serum (Sigma Aldrich, Cat: H4522-100ML), 500 U/ml IL-2 (Peprotech, Cat: 200-02) and 140 U/ml IL-15 (Peprotech, Cat: 200-15). […] 1.25×10^5 NK cells were seeded per well in a 48-well plate. […] Propidium Iodide (PI) (Miltenyi Biotec, Cat: 130-093-233) staining was used to determine the viability of NK cells.

[5] = system: NF-κB pathway; experiment: THP1-Dual cells, NF-κB pathway (SEAP); type: cell-based; conditions: 24 h
Experimental: To analyze if PNFs stimulate an immune response, different PNFs concentrations (5, 10, 30 and 50 µg/ml) and 0.1 µg/ml lipopolysaccharide (LPS, InvivoGen, Cat: tlrl-eklps) as a positive control were incubated with 70,000 THP1-Dual cells, a monocyte cell line that allows the simultaneous analysis of the NF-κB and interferon regulatory factor (IRF) pathway, which are major effectors of the innate immune response ([45]). After 24 h, cellular supernatants were analyzed for the activation of the NF-κB pathway by measuring the activity of secreted alkaline phosphatase (SEAP). Therefore, 20 µl supernatant was mixed with 120 µl Alkaline Phosphatase Blue Microwell Substrate (Sigma Aldrich, Cat: AB0100-1KT). After 10 min, 30 µl Alkaline Phosphatase Stop Solution (Sigma Aldrich, Cat: A5852) was added and adsorption at 620 nm was measured using VersaMax Microplate Reader (Molecular Devices). For analysis of IRF pathway, secreted Gaussia Luciferase was measured. 25 µl supernatant was transferred to a white 96 well microtiter plate and Gaussia substrate (82.6 µg/ml Colenterazine, PJK, Cat: 102172) was automatically added according to manufacturer’s protocol and Luminescence was measured by Orion II Microplate Luminometer (Berthold).

CC[C@H](C)[C@H](NC(=O)[C@H](Cc1ccccc1)NC(=O)[C@@H](NC(=O)[C@@H](NC(=O)[C@@H](N)CCCNC(=N)N)[C@@H](C)O)[C@@H](C)CC)C(=O)N[C@H](C(=O)N[C@@H](CO)C(=O)N[C@@H](CCSC)C(=O)N[C@@H](Cc1ccc(O)cc1)C(=O)N[C@@H](CCCCN)C(=O)O)[C@@H](C)CC [RK-10] (H-RTIFIISMYK-OH)
Cytotoxicity, TZM-bl cells [1]: not being cytotoxic

CC[C@H](C)[C@H](NC(=O)[C@H](Cc1ccccc1)NC(=O)[C@@H](NC(=O)[C@@H](NC(=O)[C@@H](N)CCCNC(=N)N)[C@@H](C)O)[C@@H](C)CC)C(=O)N[C@H](C(=O)N[C@@H](CO)C(=O)N[C@@H](CCSC)C(=O)O)[C@@H](C)CC [RM-8] (H-RTIFIISM-OH)
Cytotoxic effect on T cells, GALV-RV transduction ([2]; two donors): not showing any cytotoxic effect | Cytotoxicity, TZM-bl cells [1]: not being cytotoxic | Chemical stability by HPLC [3]: chemically stable over time; also recorded: chemically stable for 10 days | NK cell viability at highest concentration ([4]; 30 µg/ml): slightly reduced cell viability

CC[C@H](C)[C@H](NC(=O)[C@H](CCCNC(=N)N)NC(=O)[C@@H](N)CCCNC(=N)N)C(=O)N[C@@H](Cc1ccccc1)C(=O)N[C@H](C(=O)N[C@H](C(=O)N[C@@H](CO)C(=O)N[C@@H](CCSC)C(=O)O)[C@@H](C)CC)[C@@H](C)CC [D4] (H-RRIFIISM-OH)
Activation of NF-κB pathway at 50 µg/ml [5]: significant activation of the NF-kB pathway | T cell viability after GALV-RV transduction ([2]; four donors): neither D4 PNF nor the other transduction enhancers affected T cell viability | Chemical stability by HPLC [3]: chemically stable for 10 days; also recorded: single peak with unchanged retention time | NK cell viability [4]: did not show any impact on cell viability
